Results: patent US12459921B2, “Isoindoline compound, preparation method, pharmaceutical composition and use thereof” (SHANGHAI INSTITUTE OF MATERIA MEDICA, CHINESE ACADEMY OF …, priority 2018, dated 2025)
Like-named read-outs stand apart in the source and are kept apart here.

Legend:
MV-4-11 cells = test: Inhibitory effect on the proliferation of MV-4-11 cells, MTS cell viability test; format: cell-based; conditions: acute leukemia MV-4-11 cells, 7 days incubation, read-out: Tumor cell inhibitory activity
Procedure: Method of tumor cell proliferation inhibition test: the inventors tested all the example compounds on hematologic tumor cells, multiple myeloma MMTs cell line and acute leukemia cell MV-4-11 cell line of some examples. The activity test method and results are as follows.
2. The Inhibitory Effect of Compounds on the Proliferation of MV-4-11 Cells, MTS Cell Viability Test: 1). Experimental Method:
MV-4-11 cells were cultured and collected with IMDM and 10% fetal bovine serum. The cell concentration was diluted according to 7 days, and 180 ul of cell suspension was added to each well of a 96-well cell plate to 2000 cells. 20 ul of DMSO with a final concentration of 0.2% was added to the control wells. The compound was diluted 5-fold from the 10 mM stock solution, and 20 ul was also added to the compound cell wells (the final concentration of DMSO was 0.2%). The cells were placed in a 37° C., 5% CO2 incubator and incubated for 7 days. After the reaction solution was prepared according to the MTS kit (Promega, G5430), 20 μL was added to each well, incubated in a 37° C., 5% CO2 incubator for 3-4 h. The 490 nm absorbance value was read with a microtiter plate, and the 690 nm absorbance value was used as the background value. OD490-OD690 was used as the final initial data. The formula for calculating the inhibition rate of the compound was: inhibition rate=(ODDMSO-ODcompound)/(ODDMSO-Oblank)×100%. The compound's proliferation inhibition IC50 was fitted by Graph Pad Prism 5.0. The experiment was repeated three times, and the average and standard deviation was calculated according to three parallel experiments each time.

MM.1S cells = test: Inhibitory effect on the proliferation of MM.1S, MTS cell viability test; format: cell-based; conditions: multiple myeloma MM.1S cells, 7 days incubation, read-out: Tumor cell inhibitory activity
How it was run: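 Viability measured by MTS (OD490 minus OD690 background, 3-4 h) after a 7-day exposure of 20,000 MM.1S cells/well to 5-fold serially diluted compound, 0.2% DMSO final. Inhibition calculated relative to DMSO wells; IC50 curve-fitted, averaged over three repeats.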

SMILES	IC50 (MV-4-11 cells; Homo sapiens, MV4-11, 168 h) [nM]	IC50 (MM.1S cells; Homo sapiens, MM1.S, 168 h) [nM]	IC50 (MV-4-11 cells) [nM]	IC50 (MM.1S cells) [nM]
Cc1nc2cccc(N)c2c(=O)n1C1CCC(=O)NC1=O (centres unmarked) [CC-122, reference compound]	> 20000	< 100		
O=C1CCC(N2Cc3c(OCc4ccc(CN5CCOCC5)cc4)cccc3C2=O)C(=O)N1 (centres unmarked) [CC-220, reference compound]	> 20000	< 100		
O=C1CCC(N2Cc3c(CCCCCN4CCC(c5noc6cc(F)ccc56)CC4)cccc3C2=O)C(=O)N1 (centres unmarked) [Example 22, 3-(4-(5-(4-(6-fluorobenzo[d]isoxazole-3-)piperidine-1-)pentyl)-1-oxoisoindoline-2-)piperidine-2,6-dione]			110	< 100
N#CC1(c2cccc(Cl)c2)CCN(CCCCCc2cccc3c2CN(C2CCC(=O)NC2=O)C3=O)CC1 (centres unmarked) [Example 51, 4-(3-chlorophenyl)-1-(5-(2-(2,6-dioxopiperidine-3-)-1-oxoisoindoline-4-)pentyl) piperidine-4-carbonitrile]	570	< 100		
O=C1CCC(N2Cc3c(CCCCCN4CCc5ccccc54)cccc3C2=O)C(=O)N1 (centres unmarked) [Example 107, 3-(4-(5-(indoline-1-)pentyl)-1-oxoisoindoline-2-)piperidine-2,6-dione]	180	< 100		
O=C1CCC(N2Cc3c(CCCCCN4CCc5ccc(Br)cc54)cccc3C2=O)C(=O)N1 (centres unmarked) [Example 114, 3-(4-(5-(5-bromoindoline-1-)pentyl)-1-oxoisoindoline-2-)piperidine-2,6-dione]	220	100 to 1000		
O=C1CCC(N2Cc3c(CCCCCN4CCC5(CCc6ccccc65)CC4)cccc3C2=O)C(=O)N1 (centres unmarked) [Example 143, 3-(4-(5-(2,3-dihydrospiro[indene-1,4′-piperidine]-1′-)pentyl)-1-oxoisoindoline-2-)piperidine-2,6-dione]	610	< 100		
Cc1ccc(NC(=O)CCCOc2cccc3c2CN(C2CCC(=O)NC2=O)C3=O)cc1Cl (centres unmarked) [Example 158, N-(3-chloro-4-methylphenyl)-4-((2-(2,6-dioxopiperidine-3-)-1-oxoisoindoline-4-)oxy)butanamide]	14	< 100		
CC(=O)N[C@@H](CCCc1cccc2c1CN(C1CCC(=O)NC1=O)C2=O)C(=O)Nc1ccccc1 (stereo partly drawn) [Example 164, (2S)-2-acetylamino-5-(2-(2,6-dioxopiperidine-3-)-1-oxoisoindoline-4-)-N-phenylpentanamide]	250	< 100		
CC(=O)N[C@@H](CCCc1cccc2c1CN(C1CCC(=O)NC1=O)C2=O)C(=O)NCc1ccccc1 (stereo partly drawn) [Example 166, (2S)-2-acetylamino-N-benzyl-5-(2-(2,6-dioxopiperidine-3-)-1-oxoisoindoline-4-)pentanamide]	200	100 to 1000		
CC(C)C(=O)N[C@@H](CCCc1cccc2c1CN(C1CCC(=O)NC1=O)C2=O)C(=O)NCc1ccccc1 (stereo partly drawn) [Example 167, (2S)-N-benzyl-5-(2-(2,6-dioxopiperidine-3-)-1-oxoisoindoline-4-)-2-iso butyramidopentaneamide]	35	< 100		
O=C1CCC(N2Cc3c(CCC[C@H](NC(=O)C4CCC4)C(=O)NCc4ccccc4)cccc3C2=O)C(=O)N1 (stereo partly drawn) [Example 173, N-((2S)-1-(benzylamine)-5-(2-(2,6-dioxopiperidine-3-)-1-oxoisoindoline-4-)-1-oxopentyl-2-)cyclobutylcarboxamide]	29	< 100		
CC(=O)N[C@@H](CCCc1cccc2c1CN(C1CCC(=O)NC1=O)C2=O)C(=O)NCc1cccc(Br)c1 (stereo partly drawn) [Example 182, (2S)-2-acetylamino-N-(3-bromobenzyl)-5-(2-(2,6-dioxopiperidine-3-)-1-oxoisoindoline-4-)pentanamide]	17	< 100		
O=C1CCC(N2Cc3c(CCCCN4CCN(c5cccc6ccsc56)CC4)cccc3C2=O)C(=O)N1 (centres unmarked) [Example 221, 3-(4-(4-(4-(benzothiophene-7-yl)piperazin-1-yl)butyl)-1-oxoisoindoline-2-yl)piperidine-2,6-dione]	600	< 100		
O=C1CCC(N2Cc3c(CCCCCN4CCC(c5noc6cc(F)ccc56)CC4)cccc3C2=O)C(=O)N1 (centres unmarked) [Example 226, 3-(4-(5-(4-(6-fluorobenzisoxazole-3-yl)piperidin-1-yl)pentyl)-1-oxoisoindoline-2-yl)piperidine-2,6-]			510	1000 to 20000
O=C1CCC(N2Cc3c(CCCCCN4CCN(c5c(Cl)cccc5Cl)CC4)cccc3C2=O)C(=O)N1 (centres unmarked) [Example 235, 3-(4-(5-(4-(2,6-dichlorophenyl)piperazine-1-yl)pentyl)-1-oxoisoindoline-2-yl)piperidine-2,6-dione]	480	100 to 1000		
N#CC1(c2cc(Cl)ccc2Cl)CCN(CCCCCc2cccc3c2CN(C2CCC(=O)NC2=O)C3=O)CC1 (centres unmarked) [Example 248, 4-(2,5-dichlorophenyl)-1-(5-(2-(2,6-dioxopiperidine-3-yl)-1-oxoisoindoline-4-yl)pentyl)piperidine-4-carbonitrile]	660	1000 to 20000		
O=C1CCC(N2Cc3c(CCCCCN4CCC5(CC4)OCc4cc(F)ccc45)cccc3C2=O)C(=O)N1 (centres unmarked) [Example 273, 3-(4-(5-(5-fluoro-3H-spiro[isobenzofuran-1,4′-piperidine]-1′-)pentyl)-1-oxoisoindoline-2-yl)piperidine-2,6-dione]		100 to 1000		
O=C1CCC(N2Cc3c(CCCCCN4CCC5(CC4)OCc4cc(Cl)ccc45)cccc3C2=O)C(=O)N1 (centres unmarked) [Example 274, 3-(4-(5-(5-chloro-3H-spiro[isobenzofuran-1,4′-piperidin]-1-yl)pentyl)-1-oxoisoindoline-2-yl)piperidine-2,6-dione]		100 to 1000		
O=C1CCC(N2Cc3c(CCCCCN4CCC5(CC4)C(=O)Nc4cc(Cl)ccc45)cccc3C2=O)C(=O)N1 (centres unmarked) [Example 275, 3-(4-(5-(6-chloro-2-oxospiro[dihydroindole-3,4-piperidin]-1-yl)pentyl)-1-oxoisoindoline-2-yl)piperidine-2,6-dione]	630	100 to 1000		
O=C1CCC(N2Cc3c(CCCCCN4CCC5(CC4)C(=O)Nc4cccc(Cl)c45)cccc3C2=O)C(=O)N1 (centres unmarked) [Example 276, 3-(4-(5-(4-chloro-2-oxospiro[dihydroindole-3,4-piperidin]-1-yl)pentyl)-1-oxoisoindoline-2-yl)piperidine-2,6-dione]		100 to 1000		
O=C1CCC(N2Cc3c(CCCCCN4CCC5(CC4)OC(=O)Nc4ccc(Cl)cc45)cccc3C2=O)C(=O)N1 (centres unmarked) [Example 277, 3-(4-(5-(6-chloro-2-oxo-1,2-dihydrospiro[benzo[1,3]oxazine-4,4′-piperidine]-1′-yl)pentyl)-1-oxoisoindolin-2-yl)piperidine-2,6-dione]		100 to 1000		
O=C1CCC(N2Cc3c(CCCCCN4CCC5(CC4)C(=O)Nc4ccc(F)cc45)cccc3C2=O)C(=O)N1 (centres unmarked) [Example 278]		100 to 1000		
O=C1CCC(N2Cc3c(CCCCCN4CCC5(CC4)C(=O)Nc4c(Cl)cccc45)cccc3C2=O)C(=O)N1 (centres unmarked) [Example 279, 3-(4-(5-(7-chloro-2-oxospiro[dihydroindole-3,4-piperidin]-1-yl)pentyl)-1-oxoisoindoline-2-yl)piperidine-2,6-dione]		100 to 1000		
O=C1CCC(N2Cc3c(CCCCCN4CCC5(CC4)OCc4c(Cl)cccc45)cccc3C2=O)C(=O)N1 (centres unmarked) [Example 280, 3-(4-(5-(4-chloro-3H-spiro[isobenzofuran-1,4′-piperidin]-1-yl)pentyl)-1-oxoisoindoline-2-yl)piperidine-2,6-dione]		100 to 1000		
Nc1cccc2c1CN(C1CCC(=O)NC1=O)C2=O (centres unmarked) [Lenalidomide, lenalidomide, reference compound]	> 20000	100 to 1000		
Nc1cccc2c1C(=O)N(C1CCC(=O)NC1=O)C2=O (centres unmarked) [Pomalidomide, pomalidomide, reference compound]	> 20000	< 100		
